*1 amine or outer side, *2 acyl side, *3 side chain or, on linkers, in order; H or OH if unused. Where a SMILES comes first, the peptide text is derived from it. Bridges are numbered along the chain shown (N, C = ends). [ ]: non-standard residue; d: D form. The star is where a group is joined. GdDOTA = Gd(III) DOTA conjugate, O=C([O-])CN1CCN(CC(=O)[O-])CCN(CC(=O)*)CCN(CC(=O)[O-])CC1.[Gd+3]; DOTA(In) = O=C1CN2CCN3CCN(CC(=O)*)CCN(CC2)CC(=O)[O][In]([O]1)[O]C(=O)C3; DOTA(Lu) = O=C1CN2CCN3CCN(CC(=O)*)CCN(CC2)CC(=O)[O][Lu]([O]1)[O]C(=O)C3; DOTA = O=C(O)CN1CCN(CC(=O)O)CCN(CC(=O)*)CCN(CC(=O)O)CC1; Pro(trans-4-F) = O=C(O)[C@@H]1C[C@@H](F)CN1; Phe(4-Cl) = N[C@@H](Cc1ccc(Cl)cc1)C(=O)O; Pro(cis-4-F) = O=C(O)[C@@H]1C[C@H](F)CN1; Hyp = O=C(O)[C@@H]1C[C@@H](O)CN1; hPhe = N[C@@H](CCc1ccccc1)C(=O)O; tBuAla = CC(C)(C)C[C@H](N)C(=O)O; αMeF = C[C@](N)(Cc1ccccc1)C(=O)O; LaDOTA = La(III) DOTA conjugate; Pentanoyl(4-Me) = CC(C)CCC(=O)*; Cit = NC(=O)NCCC[C@H](N)C(=O)O; Cysteamide = C(CS[*:3])N[*:1]; NMeL = CN[C@@H](CC(C)C)C(=O)O; αMeL = CC(C)C[C@](C)(N)C(=O)O; Butoxycarbonyl = CCCCOC(=O)*; Chg = N[C@H](C(=O)O)C1CCCCC1; Ac6c = NC1(C(=O)O)CCCCC1; Nva = CCC[C@H](N)C(=O)O; Hexanoyl = CCCCCC(=O)*; Pentanoyl = CCCCC(=O)*; Aib = CC(C)(N)C(=O)O
Legend:
human uPAR (uPAR-Fc) = target: T1, human uPAR (uPAR-Fc) (Homo sapiens, UniProt Q03405); assay: Surface plasmon resonance (SPR) assay, single cycle kinetics; assay type: binding; settings: pKD category for uPAR SPR activity assay, uPAR-Fc on Protein A-Chip, 25°C; for Kd: read-out: pKD CAT (converted)
T1 construct: comprising amino acids Leu23-Arg303 according to UniProt entry Q03405.1; purchased R&D Systems 10378-UK-100
T1 sequence (Q03405 23-303): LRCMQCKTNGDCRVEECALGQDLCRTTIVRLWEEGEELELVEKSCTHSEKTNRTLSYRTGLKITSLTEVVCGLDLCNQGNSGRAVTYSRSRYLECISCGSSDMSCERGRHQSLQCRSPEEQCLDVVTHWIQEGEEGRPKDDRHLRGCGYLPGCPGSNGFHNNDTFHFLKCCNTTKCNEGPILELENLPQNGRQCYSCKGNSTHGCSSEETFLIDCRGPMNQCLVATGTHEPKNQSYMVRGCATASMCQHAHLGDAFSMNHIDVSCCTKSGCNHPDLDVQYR
Method in brief: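 uPAR-Fc (Leu23-Arg303 extracellular domains, human IgG1 Fc) captured on Protein A chip to ~2000 RU; single-cycle kinetics at 25°C in HEPES running buffer pH 7.4 with 0.1% DMSO. KD from double-referenced sensorgrams fitted to 1:1 Langmuir model, reported as pKD.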

[1] = target: T2, uPAR-expressing HEC-265 human endometrial adenocarcinoma cells (Homo sapiens, UniProt Q03405); assay: Competitive FACS binding assay; settings: pIC50 category of FACS binding
T2 construct: Cell surface uPAR-expressing HEC-265 human endometrial adenocarcinoma cells; host or cells: HEC-265
T2 sequence (Q03405 23-335): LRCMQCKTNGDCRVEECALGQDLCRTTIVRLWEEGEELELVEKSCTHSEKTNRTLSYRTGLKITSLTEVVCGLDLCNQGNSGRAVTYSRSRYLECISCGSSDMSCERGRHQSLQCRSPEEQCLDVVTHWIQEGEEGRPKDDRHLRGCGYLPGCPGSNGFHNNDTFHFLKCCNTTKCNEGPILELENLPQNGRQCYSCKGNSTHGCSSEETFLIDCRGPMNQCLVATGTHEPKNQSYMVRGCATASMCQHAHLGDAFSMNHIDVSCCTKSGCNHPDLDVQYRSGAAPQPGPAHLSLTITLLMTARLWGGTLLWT
Method in brief: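 HEC-265 cells incubated 1 h at 4 °C with 10 nM biotinylated uPAR peptide tracer plus increasing test compound, then stained with APC-streptavidin on ice. Median APC fluorescence by flow cytometry; 4PL fit gives pIC50.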

| Molecule | Kd (human uPAR (uPAR-Fc); single cycle kinetics) | IC50 [1] | pKD CAT (human uPAR (uPAR-Fc)) | pIC50 CAT [1] | pKD CAT (human uPAR (uPAR-Fc); single cycle kinetics) |
| --- | --- | --- | --- | --- | --- |
| CCCCCC(=O)N[C@H]1CSSC[C@@H](C(N)=O)NC(=O)[C@H](CC(C)C)NC(=O)[C@H]([C@@H](C)CC)NC(=O)[C@@H](C)NC(=O)[C@@H]2CCCN2C(=O)[C@H](Cc2ccccc2)NC(=O)[C@H](Cc2ccc(O)cc2)NC(=O)[C@H](CCC(N)=O)NC(=O)[C@H](CCCNC(N)=O)NC1=O [UPAR-475, Hex-[Cys-Cit-Gln-Tyr-Phe-Pro-ala-Ile-Leu-Cys]-NH2] (Hexanoyl-C[Cit]QYFP[dA]ILC-NH2; disulfide 1-10) | < 1.58 nM | ≤ 10 nM | – | – | – |
| CCCCOC(=O)N[C@H]1CSSC[C@@H](C(N)=O)NC(=O)[C@H](CCC)NC(=O)[C@H](C2CCCCC2)NC(=O)[C@@H]2C[C@@H](O)CN2C(=O)[C@@H]2C[C@H](F)CN2C(=O)[C@H](Cc2ccc(Cl)cc2)NC(=O)[C@H](Cc2ccc(O)cc2)NC(=O)[C@H](CCCCNC(=O)CN2CCN(CC(=O)O)CCN(CC(=O)O)CCN(CC(=O)O)CC2)NC(=O)[C@H](CCCNC(N)=O)NC1=O [UPAR-476, Butoc-[Cys-Cit-Lys(DOTA)-Tyr-Pcf-4Cfp-Hyp-Chg-Nva-Cys]-NH2] (Butoxycarbonyl-C[Cit]K(DOTA)Y[Phe(4-Cl)][Pro(cis-4-F)][Hyp][Chg][Nva]C-NH2; disulfide 1-10) | < 1.58 nM | ≤ 10 nM | – | – | – |
| CC[C@H](C)[C@@H]1NC(=O)[C@@H](C)NC(=O)[C@@H]2CCCN2C(=O)[C@H](Cc2ccccc2)NC(=O)[C@H](Cc2ccc(O)cc2)NC(=O)[C@H](CCC(N)=O)NC(=O)[C@H](CCCNC(N)=O)NC(=O)[C@@H](NC(=O)CCC(C)C)CSSC[C@@H](C(N)=O)NC(=O)[C@H](CC(C)(C)C)NC1=O [UPAR-477, iHex-[Cys-Cit-Gln-Tyr-Phe-Pro-ala-Ile-Npg-Cys]-NH2] ({Pentanoyl(4-Me)}-C[Cit]QYFP[dA]I[tBuAla]C-NH2; disulfide 1-10) | 10 to 100 nM | 39.8 to 100 nM | – | – | – |
| CCCCC(=O)N[C@H]1CSSC[C@@H](C(N)=O)NC(=O)[C@H](CCC)NC(=O)[C@H]([C@@H](C)CC)NC(=O)[C@@H]2C[C@@H](O)CN2C(=O)[C@@H]2CCCN2C(=O)[C@H](Cc2ccccc2)NC(=O)[C@](C)(Cc2ccccc2)NC(=O)[C@H](CCC(N)=O)NC(=O)[C@H](CCCNC(=N)N)NC1=O [UPAR-478, Pent-[Cys-Arg-Gln-Amf-Phe-Pro-Hyp-Ile-Nva-Cys]-NH2] (Pentanoyl-CRQ[αMeF]FP[Hyp]I[Nva]C-NH2; disulfide 1-10) | 10 to 100 nM | 39.8 to 100 nM | – | – | – |
| CCCCC(=O)N[C@H]1CSSC[C@@H](C(N)=O)NC(=O)[C@H](CC(C)C)N(C)C(=O)[C@H]([C@@H](C)CC)NC(=O)[C@@H]2C[C@@H](O)CN2C(=O)[C@@H]2CCCN2C(=O)[C@H](Cc2ccccc2)NC(=O)[C@H](Cc2ccc(O)cc2)NC(=O)[C@H](CCC(N)=O)NC(=O)[C@H](CCCNC(=N)N)NC1=O [UPAR-480, Pent-[Cys-Arg-Gln-Tyr-Phe-Pro-Hyp-Ile-Nml-Cys]-NH2] (Pentanoyl-CRQYFP[Hyp]I[NMeL]C-NH2; disulfide 1-10) | > 100 nM | ≥ 126 nM | – | – | – |
| CCCCC(=O)N[C@H]1CSSCCNC(=O)[C@H](CCC)NC(=O)[C@H]([C@@H](C)CC)NC(=O)[C@@H]2C[C@@H](O)CN2C(=O)[C@@H]2CCCN2C(=O)[C@H](Cc2ccccc2)NC(=O)[C@H](Cc2ccc(O)cc2)NC(=O)[C@H](CCC(N)=O)NC(=O)[C@H](CCCNC(=N)N)NC1=O [UPAR-481, Pent-[Cys-Arg-Gln-Tyr-Phe-Pro-Hyp-Ile-Nva-AET]] (Pentanoyl-CRQYFP[Hyp]I[Nva]-Cysteamide; disulfide 1-C) | < 1.58 nM | ≤ 10 nM | – | – | – |
| CCC[C@@H]1NC(=O)[C@H]([C@@H](C)CC)NC(=O)[C@@H]2C[C@@H](O)CN2C(=O)[C@@H]2CCCN2C(=O)[C@H](Cc2ccccc2)NC(=O)[C@H](Cc2ccc(O)cc2)NC(=O)[C@H](CCC(N)=O)NC(=O)[C@H](CCCNC(=N)N)NC(=O)[C@@H](NC(=O)C2(NC(C)=O)CCCCC2)CSSC[C@@H](C(N)=O)NC1=O [UPAR-482, Ac-Egz-[Cys-Arg-Gln-Tyr-Phe-Pro-Hyp-Ile-Nva-Cys]-NH2] (Ac-[Ac6c]CRQYFP[Hyp]I[Nva]C-NH2; disulfide 2-11) | < 1.58 nM | ≤ 10 nM | – | – | – |
| CCC[C@@H]1NC(=O)[C@H]([C@@H](C)CC)NC(=O)[C@@H]2C[C@@H](O)CN2C(=O)[C@@H]2CCCN2C(=O)[C@H](Cc2ccccc2)NC(=O)[C@H](Cc2ccc(O)cc2)NC(=O)[C@H](CCC(N)=O)NC(=O)[C@H](CCCNC(=N)N)NC(=O)[C@@H](NC(=O)[C@H](CC(C)C)N(C)C(C)=O)CSSC[C@@H](C(N)=O)NC1=O [UPAR-483, Ac-Nml-[Cys-Arg-Gln-Tyr-Phe-Pro-Hyp-Ile-Nva-Cys]-NH2] (Ac-[NMeL]CRQYFP[Hyp]I[Nva]C-NH2; disulfide 2-11) | < 1.58 nM | ≤ 10 nM | – | – | – |
| CCC[C@@H]1NC(=O)[C@H]([C@@H](C)CC)NC(=O)[C@@H]2C[C@@H](O)CN2C(=O)[C@@H]2CCCN2C(=O)[C@H](Cc2ccccc2)NC(=O)[C@H](Cc2ccc(O)cc2)NC(=O)[C@H](CCC(N)=O)NC(=O)[C@H](CCCNC(=N)N)NC(=O)[C@@H](NC(=O)[C@H](CCc2ccccc2)NC(C)=O)CSSC[C@@H](C(N)=O)NC1=O [UPAR-484, Ac-Hfe-[Cys-Arg-Gln-Tyr-Phe-Pro-Hyp-Ile-Nva-Cys]-NH2] (Ac-[hPhe]CRQYFP[Hyp]I[Nva]C-NH2; disulfide 2-11) | 1.58 to 10 nM | ≤ 10 nM | – | – | – |
| CCC[C@@H]1NC(=O)[C@H]([C@@H](C)CC)NC(=O)[C@@H]2C[C@@H](O)CN2C(=O)[C@@H]2CCCN2C(=O)[C@H](Cc2ccccc2)NC(=O)[C@H](Cc2ccc(O)cc2)NC(=O)[C@H](CCC(N)=O)NC(=O)[C@H](CCCNC(=N)N)NC(=O)[C@@H](NC(=O)[C@](C)(CC(C)C)NC(C)=O)CSSC[C@@H](C(N)=O)NC1=O [UPAR-485, Ac-Aml-[Cys-Arg-Gln-Tyr-Phe-Pro-Hyp-Ile-Nva-Cys]-NH2] (Ac-[αMeL]CRQYFP[Hyp]I[Nva]C-NH2; disulfide 2-11) | < 1.58 nM | ≤ 10 nM | – | – | – |
| Butoc-[Cys-Cit-Lys(LuDOTA)-Tyr-Pcf-4Cfp-Hyp-Chg-Nva-Cys]-NH2 [UPAR-169] | – | – | A (pKD values ≥ 8.8) | A (pIC50 values ≥8.0) | – |
| Butoc-[Cys-Cit-Lys(LuDOTA)-Tyr-Pcf-4Cfp-Hyp-Ile-Nva-Cys]-NH2 [UPAR-369] | – | – | – | A (pIC50 values ≥8.0) | A (pKD values ≥ 8.8) |
| Pent-[Cys-Asn-Lys(LuDOTA)-Tyr-Phe-Pro-Hyp-Ile-Nva-Cys]-NH2 (Pentanoyl-CNK(DOTA(Lu))YFP[Hyp]I[Nva]C-NH2; disulfide 1-10; not fully specified; also: Lu(III) complexed by DOTA) [UPAR-335] | – | – | A (pKD values ≥ 8.8) | A (pIC50 values ≥8.0) | – |
| Pent-[Cys-Cit-Lys(GdDOTA)-Mpa-Phe-Pro-Hyp-Ile-Nva-Cys]-NH2 [UPAR-251] | – | – | A (pKD values ≥ 8.8) | A (pIC50 values ≥8.0) | – |
| Pent-[Cys-Cit-Lys(GdDOTA)-Tyr-Phe-Pro-4Tfp-Ile-Nva-Cys]-NH2 (Pentanoyl-C[Cit]K(GdDOTA)YFP[Pro(trans-4-F)]I[Nva]C-NH2; disulfide 1-10; not fully specified; also: Gd(III) complexed by DOTA) [UPAR-435] | – | – | – | A (pIC50 values ≥8.0) | A (pKD values ≥ 8.8) |
| Pent-[Cys-Cit-Lys(InDOTA)-Tyr-Mpa-Pro-Hyp-Ile-Nva-Cys]-NH2 [UPAR-331] | – | – | A (pKD values ≥ 8.8) | A (pIC50 values ≥8.0) | – |
| Pent-[Cys-Cit-Lys(InDOTA)-Tyr-Pcf-Pro-Hyp-Ile-Nva-Cys]-NH2 [UPAR-355] | – | – | – | A (pIC50 values ≥8.0) | A (pKD values ≥ 8.8) |
| Pent-[Cys-Cit-Lys(InDOTA)-Tyr-Phe-Pro-Hyp-Ile-Nva-Cys]-NH2 (Pentanoyl-C[Cit]K(DOTA(In))YFP[Hyp]I[Nva]C-NH2; disulfide 1-10; not fully specified; also: In(III) complexed by DOTA) [UPAR-182] | – | – | A (pKD values ≥ 8.8) | A (pIC50 values ≥8.0) | – |
| Pent-[Cys-Cit-Lys(InDOTA-PEG12)-Tyr-Phe-Pro-Hyp-Ile-Nva-Cys]-NH2 (Pentanoyl-C[Cit]KYFP[Hyp]I[Nva]C-NH2; disulfide 1-10; not fully specified (residue 3); printed as Pent-[Cys-Cit-Lys(InDOTA-PEG12)-Tyr-Phe-Pro-Hyp-Ile-Nva-Cys]-NH2; also: In(III) complexed by DOTA) [UPAR-404] | – | – | – | A (pIC50 values ≥8.0) | A (pKD values ≥ 8.8) |
| Pent-[Cys-Cit-Lys(LaDOTA)-Ppa-Phe-Pro-Hyp-Ile-Nva-Cys]-NH2 [UPAR-296] | – | – | A (pKD values ≥ 8.8) | A (pIC50 values ≥8.0) | – |
| Pent-[Cys-Cit-Lys(LaDOTA)-Tyr-Phe-Pro-Aib-Ile-Nva-Cys]-NH2 (Pentanoyl-C[Cit]K(LaDOTA)YFP[Aib]I[Nva]C-NH2; disulfide 1-10; not fully specified; also: La(III) complexed by DOTA) [UPAR-279] | – | – | A (pKD values ≥ 8.8) | A (pIC50 values ≥8.0) | – |

— patent EP4610269A1, “UROKINASE PLASMINOGEN ACTIVATOR SURFACE RECEPTOR (UPAR) LIGANDS FOR DIAGNOSTIC OR THERAPEUTIC USE” (3B Pharmaceuticals GmbH, priority 2024, dated 2025)
